Test [1] has as its system SARS-CoV-2 clinical isolate (2019-nCoV/USA-WA1/2020). It is filed as cell-based.
The subject of test [2] is VSVpp+SARS-2-S Δ18 in Vero-E6 cells. It is filed as cell-based, African green monkey.
The target in the next test is Human Trypsin-6 (Homo sapiens, UniProt Q8NHM4). The experiment in a line: Ki determination, chromogenic substrate cleavage. It is filed as biochemical. Conditions: read-out: Ki Mean ± SD (n).
A further test deals with T1, Human TMPRSS11(A) (Homo sapiens, UniProt Q6ZMR5).
T1 construct: purchased MyBioSource MBS1345824; host or cells: mammalian expression system
T1 sequence (Q6ZMR5 whole entry): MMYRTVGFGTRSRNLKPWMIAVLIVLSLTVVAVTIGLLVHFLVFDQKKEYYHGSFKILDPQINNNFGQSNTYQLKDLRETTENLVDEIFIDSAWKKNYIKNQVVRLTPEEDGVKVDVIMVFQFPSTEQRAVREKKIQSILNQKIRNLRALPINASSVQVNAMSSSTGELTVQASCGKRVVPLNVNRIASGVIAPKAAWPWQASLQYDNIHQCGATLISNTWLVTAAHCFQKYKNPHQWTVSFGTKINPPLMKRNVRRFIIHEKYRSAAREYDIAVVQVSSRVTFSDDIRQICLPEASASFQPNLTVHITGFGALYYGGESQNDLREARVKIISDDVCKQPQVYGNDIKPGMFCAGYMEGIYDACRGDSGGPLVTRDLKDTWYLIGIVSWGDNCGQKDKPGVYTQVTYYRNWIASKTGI
In words: Ki determination, chromogenic substrate cleavage. It is filed as biochemical. Conditions: read-out: Ki Mean ± SD (n). Here is the method: The Ki was determined to be 0.39±0.01 (3) μM.

The next test has as its target Human Enterokinase (Homo sapiens, UniProt P98073). In words: Ki determination, chromogenic substrate cleavage. It is filed as biochemical. Conditions: read-out: Ki Mean ± SD (n).
For another test, the target named is T2, Human Thrombin (Homo sapiens, UniProt P00734).
T2 construct: Human Thrombin
In words: Ki determination, chromogenic substrate cleavage. Conditions: read-out: Ki Mean ± SD (n). It is filed as biochemical.

The target of another test is Human uPA (Homo sapiens, UniProt P00749). In words: Ki determination, chromogenic substrate cleavage. Conditions: read-out: Ki Mean ± SD (n). It is filed as biochemical.
The target of a further test is T3, Human FXIa (Homo sapiens, UniProt P03951).
T3 construct: Human FXIa
The experiment in a line: Ki determination, chromogenic substrate cleavage. It is filed as biochemical. Conditions: read-out: Ki Mean ± SD (n).

The next test addresses T4, Human two-chain tPA (Homo sapiens, UniProt P00750).
T4 construct: Human two-chain tPA
The experiment in a line: Ki determination, chromogenic substrate cleavage. It is filed as biochemical. Conditions: read-out: Ki Mean ± SD (n).

The target in the next test is Human HAT (Homo sapiens, UniProt O60235). In words: Ki determination, chromogenic substrate cleavage. It is filed as biochemical. Conditions: read-out: Ki Mean ± SD (n).
Chain of Human HAT (O60235 whole entry): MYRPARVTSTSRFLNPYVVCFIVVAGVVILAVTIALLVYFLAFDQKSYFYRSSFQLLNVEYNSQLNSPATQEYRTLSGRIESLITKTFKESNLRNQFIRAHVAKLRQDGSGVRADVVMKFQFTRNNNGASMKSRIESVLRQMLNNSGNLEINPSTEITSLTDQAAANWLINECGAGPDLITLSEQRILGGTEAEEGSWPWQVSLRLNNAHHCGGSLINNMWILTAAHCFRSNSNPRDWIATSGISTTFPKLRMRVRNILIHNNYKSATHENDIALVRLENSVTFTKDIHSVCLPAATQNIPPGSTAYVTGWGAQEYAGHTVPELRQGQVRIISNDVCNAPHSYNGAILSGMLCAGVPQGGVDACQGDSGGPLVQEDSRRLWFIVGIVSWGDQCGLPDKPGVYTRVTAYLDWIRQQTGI
The target of the next test is T5, Human Plasmin (Homo sapiens, UniProt P00747).
T5 construct: Human Plasmin
T5 sequence (P00747 581-810 limits assumed): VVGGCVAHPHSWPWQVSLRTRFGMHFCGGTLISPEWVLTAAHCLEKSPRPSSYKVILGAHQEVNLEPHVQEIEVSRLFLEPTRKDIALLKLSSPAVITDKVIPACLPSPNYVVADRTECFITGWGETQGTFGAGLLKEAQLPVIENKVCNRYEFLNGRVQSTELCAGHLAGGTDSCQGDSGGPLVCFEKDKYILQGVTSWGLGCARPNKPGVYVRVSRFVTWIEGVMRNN
T5 sequence (P00747 97-580 partner limits assumed): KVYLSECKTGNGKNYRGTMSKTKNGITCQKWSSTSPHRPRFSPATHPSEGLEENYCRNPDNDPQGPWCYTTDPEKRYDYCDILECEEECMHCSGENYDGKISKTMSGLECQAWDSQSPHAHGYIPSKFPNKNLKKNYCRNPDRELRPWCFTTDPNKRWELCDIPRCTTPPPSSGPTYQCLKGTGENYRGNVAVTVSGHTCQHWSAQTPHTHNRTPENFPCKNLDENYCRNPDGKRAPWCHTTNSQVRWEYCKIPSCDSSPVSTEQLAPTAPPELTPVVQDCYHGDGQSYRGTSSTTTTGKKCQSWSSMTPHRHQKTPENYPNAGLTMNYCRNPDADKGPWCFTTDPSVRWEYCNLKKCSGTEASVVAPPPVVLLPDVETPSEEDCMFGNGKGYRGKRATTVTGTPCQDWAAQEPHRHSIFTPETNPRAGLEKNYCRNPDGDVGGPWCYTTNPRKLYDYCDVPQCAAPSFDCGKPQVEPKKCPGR
In words: Ki determination, chromogenic substrate cleavage. It is filed as biochemical. Conditions: read-out: Ki Mean ± SD (n).

For another test, the target named is T6, Human FIXa (Homo sapiens, UniProt P00740).
T6 construct: Human FIXa
In words: Ki determination, chromogenic substrate cleavage. It is filed as biochemical. Conditions: read-out: Ki Mean ± SD (n).

The target in the next test is T7, Human Fxa (Homo sapiens, UniProt P00742).
T7 construct: Human Fxa
T7 sequence (P00742 235-488 limits assumed): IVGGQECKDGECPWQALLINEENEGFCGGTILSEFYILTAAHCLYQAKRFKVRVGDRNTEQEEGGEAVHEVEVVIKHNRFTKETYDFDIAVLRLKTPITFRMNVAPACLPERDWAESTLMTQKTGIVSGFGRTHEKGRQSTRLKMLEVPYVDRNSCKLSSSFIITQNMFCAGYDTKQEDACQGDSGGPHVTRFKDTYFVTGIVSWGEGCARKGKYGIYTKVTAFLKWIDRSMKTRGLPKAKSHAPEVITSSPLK
T7 sequence (P00742 41-179 partner limits assumed): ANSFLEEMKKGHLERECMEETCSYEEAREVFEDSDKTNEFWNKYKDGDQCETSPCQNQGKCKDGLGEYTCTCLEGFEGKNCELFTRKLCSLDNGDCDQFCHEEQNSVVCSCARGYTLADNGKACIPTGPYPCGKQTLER
The experiment in a line: Ki determination, chromogenic substrate cleavage. It is filed as biochemical. Conditions: read-out: Ki Mean ± SD (n).

For the next test, the target named is T8, Human TMPRSS2 (Homo sapiens, UniProt O15393).
T8 construct: purchased MyBioSource MBS1193731; host or cells: mammalian expression system
T8 sequence (O15393 whole entry): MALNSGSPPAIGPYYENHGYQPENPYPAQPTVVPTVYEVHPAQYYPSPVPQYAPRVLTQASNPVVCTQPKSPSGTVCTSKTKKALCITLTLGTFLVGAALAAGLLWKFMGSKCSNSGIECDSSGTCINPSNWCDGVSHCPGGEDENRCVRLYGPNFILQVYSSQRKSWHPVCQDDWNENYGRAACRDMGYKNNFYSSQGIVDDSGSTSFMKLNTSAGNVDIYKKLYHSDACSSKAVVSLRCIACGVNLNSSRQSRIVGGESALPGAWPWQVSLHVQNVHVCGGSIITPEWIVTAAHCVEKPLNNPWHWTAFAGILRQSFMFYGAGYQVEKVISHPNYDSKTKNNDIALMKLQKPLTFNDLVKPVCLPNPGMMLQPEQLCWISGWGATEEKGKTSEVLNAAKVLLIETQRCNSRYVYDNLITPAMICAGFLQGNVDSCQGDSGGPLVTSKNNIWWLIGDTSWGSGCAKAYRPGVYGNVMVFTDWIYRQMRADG
The experiment in a line: Ki determination, chromogenic substrate cleavage. It is filed as biochemical. Conditions: read-out: Ki Mean ± SD (n). On the procedure:
The Ki was determined to be 2.9±0.04 (3) μM.

For the next test, the target named is Human C1s (Homo sapiens, UniProt P09871). In words: Ki determination, chromogenic substrate cleavage. It is filed as biochemical. Conditions: read-out: Ki Mean ± SD (n).
Chain of Human C1s (P09871 16-688): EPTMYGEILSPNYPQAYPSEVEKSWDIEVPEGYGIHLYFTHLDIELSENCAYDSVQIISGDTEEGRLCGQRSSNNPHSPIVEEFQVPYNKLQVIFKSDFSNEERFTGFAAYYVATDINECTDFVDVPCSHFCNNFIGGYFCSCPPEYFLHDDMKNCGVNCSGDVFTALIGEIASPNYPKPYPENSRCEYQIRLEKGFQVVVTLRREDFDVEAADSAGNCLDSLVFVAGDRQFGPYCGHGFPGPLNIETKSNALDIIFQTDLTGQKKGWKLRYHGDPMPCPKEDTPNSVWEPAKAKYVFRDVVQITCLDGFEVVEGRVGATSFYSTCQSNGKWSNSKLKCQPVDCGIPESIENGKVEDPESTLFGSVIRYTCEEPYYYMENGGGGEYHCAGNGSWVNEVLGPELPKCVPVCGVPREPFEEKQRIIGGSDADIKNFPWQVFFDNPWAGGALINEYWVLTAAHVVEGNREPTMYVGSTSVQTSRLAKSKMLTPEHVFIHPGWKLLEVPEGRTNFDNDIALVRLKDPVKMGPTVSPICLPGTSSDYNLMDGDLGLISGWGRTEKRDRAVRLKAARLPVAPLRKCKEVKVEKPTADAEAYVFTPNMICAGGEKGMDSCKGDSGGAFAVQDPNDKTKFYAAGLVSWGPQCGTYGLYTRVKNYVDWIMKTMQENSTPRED
Test [3] addresses Human Activated Protein C (Homo sapiens, UniProt P04070). The experiment in a line: Ki determination, chromogenic substrate cleavage. It is filed as biochemical. Conditions: read-out: Ki Mean ± SD (n).
The next test addresses Human Hepsin (Homo sapiens, UniProt P05981). The experiment in a line: Ki determination, chromogenic substrate cleavage. It is filed as biochemical. Conditions: read-out: Ki Mean ± SD (n).
Another test deals with Human Matriptase-2 (Homo sapiens, UniProt Q8IU80). In words: Ki determination, chromogenic substrate cleavage. It is filed as biochemical. Conditions: read-out: Ki Mean ± SD (n).
The target of a further test is Human Spinesin (Homo sapiens, UniProt Q9H3S3). The experiment in a line: Ki determination, chromogenic substrate cleavage. It is filed as biochemical. Conditions: read-out: Ki Mean ± SD (n).
Chain of Human Spinesin (Q9H3S3 whole entry): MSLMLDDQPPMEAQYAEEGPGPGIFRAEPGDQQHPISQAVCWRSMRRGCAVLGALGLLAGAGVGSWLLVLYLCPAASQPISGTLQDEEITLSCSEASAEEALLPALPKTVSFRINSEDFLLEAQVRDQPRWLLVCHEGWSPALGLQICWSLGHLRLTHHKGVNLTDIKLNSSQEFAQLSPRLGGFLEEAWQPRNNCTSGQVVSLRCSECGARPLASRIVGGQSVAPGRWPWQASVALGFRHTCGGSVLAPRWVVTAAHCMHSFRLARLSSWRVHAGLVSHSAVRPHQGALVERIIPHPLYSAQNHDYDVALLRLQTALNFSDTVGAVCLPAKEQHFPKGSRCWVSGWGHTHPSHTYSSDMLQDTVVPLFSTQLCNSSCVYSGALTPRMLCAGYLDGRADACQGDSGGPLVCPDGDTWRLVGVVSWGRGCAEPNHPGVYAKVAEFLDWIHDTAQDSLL
The target in the next test is Human DESC-1 (Homo sapiens, UniProt Q9UL52). In words: Ki determination, chromogenic substrate cleavage. It is filed as biochemical. Conditions: read-out: Ki Mean ± SD (n).
Chain of Human DESC-1 (Q9UL52 whole entry): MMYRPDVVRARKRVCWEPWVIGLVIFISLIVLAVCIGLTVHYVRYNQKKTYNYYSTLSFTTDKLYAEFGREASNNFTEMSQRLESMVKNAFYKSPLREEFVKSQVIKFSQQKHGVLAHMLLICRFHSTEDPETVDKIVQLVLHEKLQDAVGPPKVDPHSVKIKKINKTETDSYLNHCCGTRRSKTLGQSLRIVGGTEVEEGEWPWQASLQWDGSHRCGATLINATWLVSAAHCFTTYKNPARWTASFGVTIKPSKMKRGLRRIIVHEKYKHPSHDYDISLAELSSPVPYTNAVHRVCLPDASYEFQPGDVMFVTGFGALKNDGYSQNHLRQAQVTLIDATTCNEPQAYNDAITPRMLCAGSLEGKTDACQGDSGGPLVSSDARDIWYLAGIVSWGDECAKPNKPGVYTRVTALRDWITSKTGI
Another test addresses Human PRSS27 (Homo sapiens, UniProt Q9BQR3). The experiment in a line: Protease inhibition (IC50), chromogenic substrate cleavage. It is filed as biochemical. Conditions: listed as marked (IC50) in the Ki column, read-out: IC50 Mean ± SD (n).
Another test addresses Human Plasma Kallikrein (Homo sapiens, UniProt P03952). In words: Ki determination, chromogenic substrate cleavage. It is filed as biochemical. Conditions: read-out: Ki Mean ± SD (n).
The target in another test is Human HGFA (Homo sapiens, UniProt Q04756). The experiment in a line: Ki determination, chromogenic substrate cleavage. It is filed as biochemical. Conditions: read-out: Ki Mean ± SD (n).
The target of a further test is Human Granzyme A (Homo sapiens, UniProt P12544). In words: Ki determination, chromogenic substrate cleavage. It is filed as biochemical. Conditions: read-out: Ki Mean ± SD (n).
The target in the next test is Human Kallikrein-8 (Homo sapiens, UniProt O60259). In words: Ki determination, chromogenic substrate cleavage. It is filed as biochemical. Conditions: read-out: Ki Mean ± SD (n).
In the next test the target is Human Kallikrein-1 (Homo sapiens, UniProt P06870). The experiment in a line: Ki determination, chromogenic substrate cleavage. Conditions: read-out: Ki Mean ± SD (n). It is filed as biochemical.
Another test has as its target Human Kallikrein-11 (Homo sapiens, UniProt Q9UBX7). The experiment in a line: Ki determination, chromogenic substrate cleavage. It is filed as biochemical. Conditions: read-out: Ki Mean ± SD (n).
For a further test, the target named is Human Prostasin (Homo sapiens, UniProt Q16651). In words: Protease inhibition (IC50), chromogenic substrate cleavage. It is filed as biochemical. Conditions: listed as marked (IC50) in the Ki column, read-out: IC50 Mean ± SD (n).
In a further test the target is Rat uPA (Rattus norvegicus, UniProt P29598). In words: Ki determination, chromogenic substrate cleavage. It is filed as biochemical. Conditions: read-out: Ki Mean ± SD (n).
The target of test [4] is Bovine Cationic Trypsin-1 (Bos taurus, UniProt P00760). In words: Ki determination, chromogenic substrate cleavage. It is filed as biochemical. Conditions: read-out: Ki Mean ± SD (n).
In a further test the target is Rabbit uPA (Oryctolagus cuniculus, UniProt Q8MHY7). The experiment in a line: Ki determination, chromogenic substrate cleavage. It is filed as biochemical. Conditions: read-out: Ki Mean ± SD (n).
Test [5] deals with Human uPA (Q192A in medium) (Homo sapiens, UniProt P00749, Q373A). In words: Ki determination, chromogenic substrate cleavage. It is filed as biochemical. Conditions: read-out: Ki Mean ± SD (n).
The target in test [6] is Human uPA (H99A in medium) (Homo sapiens, UniProt P00749, H272A). The experiment in a line: Ki determination, chromogenic substrate cleavage. It is filed as biochemical. Conditions: read-out: Ki Mean ± SD (n).
The next test concerns the target Mouse uPA (Mus musculus, UniProt P06869). The experiment in a line: Ki determination, chromogenic substrate cleavage. It is filed as biochemical. Conditions: read-out: Ki Mean ± SD (n).
In test [7] the test system is VSVpp+SARS-2-S Δ18 in Calu-3 cells. It is filed as cell-based, human.
Test [8] has as its system VSV-G pseudotypes in Calu-3 cells. It is filed as cell-based, human.
The next test concerns the target Human Trypsin-3 (Homo sapiens, UniProt P35030). The experiment in a line: biochemical.
Another test addresses Human Trypsin-2 (Homo sapiens, UniProt P07478). The experiment in a line: biochemical.
A further test addresses Human Trypsin-1 (Homo sapiens, UniProt P07477). The experiment in a line: biochemical.

Entries after “also recorded” stand apart in the source; their conditions may differ.

Chain of Human Trypsin-3 (P35030 whole entry): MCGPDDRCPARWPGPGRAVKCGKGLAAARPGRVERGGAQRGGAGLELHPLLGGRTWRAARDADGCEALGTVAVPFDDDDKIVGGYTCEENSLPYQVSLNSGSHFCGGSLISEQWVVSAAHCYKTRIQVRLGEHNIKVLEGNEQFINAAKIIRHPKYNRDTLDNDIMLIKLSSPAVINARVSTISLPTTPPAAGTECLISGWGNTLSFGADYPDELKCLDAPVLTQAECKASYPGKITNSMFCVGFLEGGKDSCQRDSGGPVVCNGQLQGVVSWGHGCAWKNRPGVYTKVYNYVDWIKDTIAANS
Chain of Human PRSS27 (Q9BQR3 35-290): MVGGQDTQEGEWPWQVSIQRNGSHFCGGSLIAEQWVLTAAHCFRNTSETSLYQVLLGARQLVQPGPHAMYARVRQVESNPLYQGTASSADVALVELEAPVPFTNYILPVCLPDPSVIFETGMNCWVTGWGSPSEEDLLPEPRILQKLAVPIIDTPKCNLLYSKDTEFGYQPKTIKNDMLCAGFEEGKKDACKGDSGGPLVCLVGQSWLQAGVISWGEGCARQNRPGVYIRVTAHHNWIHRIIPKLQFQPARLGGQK
Chain of Human Kallikrein-11 (Q9UBX7 54-282): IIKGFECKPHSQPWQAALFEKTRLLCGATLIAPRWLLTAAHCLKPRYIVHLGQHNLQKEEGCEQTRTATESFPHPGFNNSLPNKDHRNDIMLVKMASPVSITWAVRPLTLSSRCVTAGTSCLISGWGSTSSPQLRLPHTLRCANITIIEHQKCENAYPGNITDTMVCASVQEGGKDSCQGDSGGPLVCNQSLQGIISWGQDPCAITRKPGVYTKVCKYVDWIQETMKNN

“4-[[4-[(Aminoiminomethyl)amino]benzoyl]oxy] benzeneacetic acid 2-(dimethylamino)-2-oxoethyl ester methanesulfonate [camostat, reference compound]”: the “antiviral activity / viral replication” value in test [1] is listed as “inhibited”. Further, the “inhibition of SARS-2-S-driven pseudotype entry” value in [2] was “inactive”.
Consider `CCOC(=O)N1CCN(C(=O)[C@H](Cc2cccc(C(=N)N)c2)NS(=O)(=O)c2c(C(C)C)cc(C(C)C)cc2C(C)C)CC1` [WX-UK1, N-α-(2,4,6-triisopropylphenylsulfonyl)-3-amidino-phenylalanine-4-ethoxycarbonylpiperazide], for which the Ki (as a rule, a measure of affinity in units of concentration, obtained from inhibition or displacement) on Human Trypsin-6 stood at 100 ± 10 nM; at Human TMPRSS11(A), 390 ± 10 nM; on Human Enterokinase, 710 ± 40 nM; on Human Thrombin, 800 ± 100 nM; on Human uPA, 900 ± 100 nM; at Human FXIa, 900 ± 100 nM. Besides, the Ki at Human two-chain tPA turned out to be 1400 ± 100 nM; at Human HAT it was 1500 ± 100 nM; at Human Plasmin, 2400 ± 300 nM; on Human FIXa it was 2500 ± 200 nM; at Human Fxa it was 2600 ± 400 nM; on Human TMPRSS2 it was 2900 ± 40 nM. Moreover, the inhibition constant Ki on Human C1s was found to be 3100 ± 400 nM; in [3] it was 3900 ± 200 nM; at Human Hepsin, 4300 ± 500 nM; at Human Matriptase-2 it was 6400 ± 300 nM; at Human Spinesin, 7700 ± 500 nM; at Human DESC-1, 13000 ± 2000 nM. Moreover, the Ki is 26000 ± 1000 nM at Human Plasma Kallikrein; 28000 ± 5000 nM at Human HGFA; greater than 250000 nM at Human Granzyme A; greater than 250000 nM at Human Kallikrein-8; greater than 250000 nM on Human Kallikrein-1; greater than 250000 nM on Human Kallikrein-11. In addition, the inhibitory constant (Ki) at Rat uPA was determined as 400 ± 100 nM; in [4] it was 500 ± 100 nM; at Rabbit uPA it was 800 ± 100 nM; in test [5], 2900 ± 100 nM; in test [6] it was 14000 ± 400 nM; at Mouse uPA it was 45000 ± 6000 nM. For the same compound, the figures for the inhibitory constant (Ki) on Human Trypsin-3, at Human Trypsin-2 and at Human Trypsin-1 were 19 ± 4 nM, 75 ± 3 nM and 190 ± 10 nM, respectively. Moreover, the IC50 (as a rule, the concentration needed to halve the response being measured) at Human PRSS27 is 19000 ± 4000 nM; at Human Prostasin it was greater than 250000 nM. Besides, in test [1], the “antiviral activity / viral replication” value is “potent antiviral activity; also recorded: inhibited”. Further, the “infectious virus production, TCID50 assay in apical washes” value in test [1] is “dose-dependent reduction”. Besides, the “reduction in viral load by TCID50” value in test [1] (lowest concentration 3.33 μg/ml, […]) is given as 4 log. Moreover, the “inhibition of SARS-2-S-driven pseudotype entry” value in test [7] and in test [2] was “moderate inhibitory activity” each time. Further, the “inhibition of VSV-G entry” value in [8] is recorded as “moderately inhibited”.
As to `CCN(CC)CCCC(C)Nc1ccnc2cc(Cl)ccc12` (centres unmarked) [chloroquine], the “inhibition of S protein-driven entry” value in test [2] is reported as “potently inhibited”.

For the origin of these results see patent publication US11045453B1 (priority 2020, dated 2021).
